Laboratory results: patent US10894043B2, “Pharmaceutical composition” (Kyowa Kirin Co., Ltd., priority 2016, dated 2021)

How the values were obtained:
[1] = test system: laser-induced choroidal neovascularization model of a rat; assay: Test Example 7: anti-angiogenic effect on laser-induced choroidal neovascularization model of rat; format: in vivo, Brown Norway rat; settings: 14 days after laser irradiation, ocular instillation twice a day 5 μL/eye (aflibercept: intravitreal 5 μL/eye once), n=12 or 13, * p<0.05 vs vehicle
Procedure: The mydriasis of the eyeballs of each male Brown Norway rat (n=12 or 13 for each group) was caused with mydriatic eye drops for examination. A ketamine hydrochloride/xylazine hydrochloride (7:1, v/v) mixed solution was intramuscularly administered (1 mL/kg) to the femur for general anesthesia. Then, the right eyeground was observed using a slit lamp, and 8 sites in the retina were irradiated with laser (wavelength: 532 nm, spot size: 80 μm, irradiation time: 0.05 sec, output: 120 mW) using a multicolor laser photocoagulator to prepare laser-induced choroidal neovascularization model animals.
A vehicle of Example 1 or the nanoparticle composition of the present invention obtained in each of Examples 1 and 2 was administered twice a day by ocular instillation (5 μL/eye, 6 hr:18 hr interval) to each model animal from immediately after the laser irradiation to 14 days after the laser irradiation. […]
A choroidal neovascular site was photographed using a confocal microscope (Nikon ECLIPSE TE 2000-U). For choroidal neovascular evaluation, an area (unit: pixel) that contained a newly formed blood vessel and was at the inner side relative to the highest raised portion was calculated using ImageJ (National Institutes of Health). […]

[2] = test system: laser-induced choroidal neovascularization model of a cynomolgus monkey; assay: Test Example 8: laser-induced choroidal neovascularization model of cynomolgus monkey, incidence of grade 4 by fluorescein fundus angiography; format: in vivo; settings: n = 6
Procedure: Twenty-one days before the start of drug administration, both the eyes of each animal (all cases) were irradiated with laser to prepare animal models. Drops of a mydriatic agent were placed in the animal eyes to be irradiated. After confirmation of mydriasis, a mixed solution of ketamine hydrochloride (50 mg/mL) and an aqueous xylazine solution (20 mg/mL) [7:1 (v/v)] was intramuscularly administered (0.2 mL/kg or 10 mg/kg) to each animal. An appropriate amount of a special aid for contact lens placement to the cornea (Scopisol Solution for Eye) was added dropwise to an eyepiece of a retinal laser lens. The retinal laser lens was pressure-bonded to the eyes to be irradiated, and a yellow spot was confirmed. After the confirmation of a yellow spot, 8 sites around the yellow spot excluding the central pit were irradiated with green laser (wavelength: 532 nm, irradiation spot size: 80 μm, irradiation time: 0.1 sec, output: 1000 mW) using a multicolor laser photocoagulator (MC-500, Nidek Co., Ltd.).
According to the test configuration shown in Table 46, a vehicle, the nanoparticle composition of the present invention prepared according to Example 1, and the solution composition obtained in Comparative Example 2 were administered four times a day by ocular instillation for 35 days to the animal. Aflibercept (EYLEA(Registered Trademark) solution for intravitreal injection, Bayer Corp.) was intravitreally injected (once) to the animal.
Ophthalmoscopic examination was carried out during the acclimatization period (day −1) and during the administration period (administration days 7, 14, 21, 28 and 34). Macroscopic examination and light reflex examination were carried out using a portable slit lamp (SL-15, Kowa Co., Ltd.). Drops of a mydriatic agent were placed in the animal eyes. After confirmation of mydriasis, ketamine hydrochloride (50 mg/mL) was intramuscularly administered (0.2 mL/kg or 10 mg/kg) to each animal. The anterior segment of the eye and the ocular media were examined using a portable slit lamp, while the eyegrounds were examined using a head-type binocular indirect ophthalmoscope (IO-aSmall Pupil, Neitz Instruments Co., Ltd.). The eyegrounds were photographed using a fundus camera (VX-10a, Kowa Co., Ltd.) in all cases.
Fluorescein fundus angiography was carried out during the acclimatization period (day −1) and during the administration period (administration days 7, 14, 21, 28 and 34). For examination, a contrast medium (Fluorescite Intravenous Injection 500 mg, Alcon Japan Ltd.) was administered (0.1 mL/kg or 0.1 mL/s) from the cephalic vein of the forearm under mydriasis and anesthesia of the macroscopic examination and the ophthalmoscopic examination. Approximately 1, 3, and 5 minutes after the contrast medium administration, photographs were taken using a fundus camera. Choroidal neovascular grading was carried out on an irradiation spot basis. The fluorescein fundus angiographic images were observed and graded on an irradiation spot basis according to the criteria of Table 47.
The incidences of grades 1 to 4 of each eye at each point in time of examination were each calculated according to the following expression: Incidence of grade (%)=The number of irradiation spots/8×100

In the case of Aflibercept [Aflibercept (EYLEA)], the “choroidal neovascularization area, mean” value [1] is reported as 102931.7* pixel, the “Incidence of grade 4” value ([2]; administration day 7, mean) is reported as 4.2% and the “Incidence of grade 4” value ([2]; administration day 14, mean) is reported as 4.2%. For the same substance, the “Incidence of grade 4” value ([2]; administration day 21, mean) was 4.2%, the “Incidence of grade 4” value ([2]; administration day 28, mean) was 4.2% and the “Incidence of grade 4” value ([2]; administration day 34, mean) was 4.2%. For the same substance, the “Incidence of grade 4” value ([2]; day −1 (acclimatization period, before administration), mean) was 43.8%.
